Source: patent US10111901B2, “Beta-glucan in combination with anti-cancer agents affecting the tumor microenvironment” (Biothera, Inc., priority 2014, dated 2018)

Key:
M1 macrophages = test: Flow cytometry of M1/M2-specific markers on M1 macrophages derived from vehicle- or β-glucan-treated whole blood; format: cell-based, human
Experimental: CD14^+ monocytes from human whole blood were enriched using Ficoll gradient and magnetic bead separation. Enriched monocytes (5×10^5 cells per mL) were then cultured in either M1-polarizing (XVivo 10 media (Lonza Group) supplemented with 5% autologous serum and 100 ng/mL recombinant human granulocyte macrophage colony-stimulating factor (rhGM-CSF) (R&D Systems) or M2-polarizing (XVivo 10 media supplemented with 10% autologous serum and 50 ng/mL recombinant human macrophage colony-stimulating factor (rhM-CSF) (R&D Systems) conditions for 6 days. In experiments performed to evaluate the effect of β-glucan, whole blood was first incubated with vehicle (sodium citrate buffer) or 25 μg/mL soluble β-glucan for 2 hours at 37° C. and then the monocytes were isolated and differentiated. Morphology was checked before macrophages were harvested for phenotypic analysis. Culture medium of the day 6 macrophage culture (MCM) was collected, spun down to remove contaminated cell pellet and then frozen down for subsequent cytokine analysis by ELISA or used to setup a co-culture with CD3 & CD28-stimulated CD4 T cells (MCM-CD4 T) for evaluation of either surface markers or CD4 T cell proliferation. The macrophages were used to setup a co-culture with CD3 & CD28- or CD3 only-stimulated CD4 T cells (Mac-CD4 T) on day 6 for evaluation of either surface marker modulation or effect on CD4 T cell proliferation. For Mac-CD4 T cell proliferation study, M1 or M2 macrophages were cultured with CD3 & CD28- or CD3 only-stimulated, CFSE-labeled, autologous CD4 T cells at a 1:10 ratio. T cell proliferation was measured at the end of the experiment (day 9-day 11) by flow cytometry, and results are graphically shown as CFSE-dilution peaks. The assessment of CD3-only stimulated T cells was always done on day 11. Quantitative results were reported as the Division Index (the average number of cell divisions a population underwent) calculated for each of the triplicate wells in each of the culture conditions. Culture supernatants of Mac-CD4 T co-cultures were collected for subsequent cytokine analysis.
M1 and M2 macrophages from vehicle- or β-glucan-treated whole blood were prepared as described above. […] In addition, surface expression of CD86 was enhanced as well as both protein and mRNA levels of PD-L1 (FIG. 2B).
Expression of a panel of markers was evaluated by flow cytometry for vehicle- and β-glucan-treated, high binder-derived M1 and M2 macrophages (CD163 was evaluated twice).
CD163 and CD86 were evaluated by flow cytometry for vehicle- and β-glucan-treated, low binder-derived M1 and M2 macrophages.

M2 macrophages = test: Mac-CD4 T co-culture surface marker modulation on macrophages; format: cell-based, human
Experimental: For evaluation of Mac-CD4 T cell surface marker modulation, M2 macrophages were co-cultured with T cells as described above and cells were harvested on day 8, day 9 and day 10 to perform surface receptor staining on both M2 macrophages and T cells.
Changes in surface marker expression on both macrophages and CD3 & CD28-stimulated T cells were also measured. Vehicle- and β-glucan-treated M2 macrophages and CD T cells from the co-cultures were evaluated by flow cytometry for the modulation of co-stimulatory or co-inhibitory molecules. FIG. 8C and Table 9 are representative results from 2 different experiments.

MC38 tumor cells = test: MC38 tumor model, tumor-free survival; format: in vivo; conditions: C57BL/6 mice, MC38 s.c.; biweekly from day 3; 1.2 mg/mouse IMPRIME PGG, 100 μs/mouse anti-PDL-1; survivors/group size
Experimental: In another animal study, mice were injected with MC38 tumor cells and randomized into treatment groups. 8 to 12 week-old female C57BL/6 mice were injected with 1×10^6 MC38 tumor cells, a colon adenocarcinoma that expresses low levels of PD-L1, in a volume of 0.1 ml injected subcutaneously in the flank. Mice were dosed biweekly starting on day 3 with the following agents: • 0.2 ml/mouse vehicle • 1.2 mg/mouse IMPRIME PGG (Biothera, Inc.) • 100 μs/mouse anti-PDL-1 Clone: 10F.9G2 BioXcell Catalog#: BE0101
Blood samples were collected 1 hour prior to dose 1, 2 hours after dose 3, the endpoint and 2 hours after the last dose (day 20). Treatment groups included vehicle (PBS control), IMPRIME PGG alone, anti-PD-L1 antibody alone and anti-PD-L1+IMPRIME PGG. Tumors were randomized to treatment groups once sizes reached a group mean of 150 mm^3.

M2a macrophages = test: Flow cytometry of CD163 and CD86 on activated M2a macrophages cultured in IL-4; format: cell-based, human; conditions: M2a macrophages cultured in IL-4, immunosuppressive conditions
Experimental: Steps for an alternative method for in vitro culture and characterization of human macrophages that includes activation of M1 and M2 macrophages (designated M1a and M2a macrophages) are outlined below. This methodology was used in the next series of experiments.
Phenotypic and functional evaluation of β-glucan-treated M2a and β-glucan-treated M2 macrophages in the presence of immunosuppressive cytokines was carried out. M2 or M2a macrophages were prepared as described above. On day 3, tumor-conditioned medium (TCM) was added M2 macrophage cultures to account for 70% of the volume of the culture and then evaluated for CD163 expression and functional activity on day 6. […] M2a macrophages were cultured in IL-4 as described above.
The β-glucan-treated M2a macrophages cultured in IL-4 and M2 macrophages cultured in TCM were first evaluated for CD163 and CD86 expression. CD163 and CD86 were evaluated by flow cytometry and median MFI was calculated for isotype control staining and surface antigen staining and the results are shown in Table 5.

Tregs (CD4+CD25+) = test: Treg suppression assay; format: cell-based, human
Experimental: Since these PBMC cultures contain Tregs, the suppressive ability of Tregs seem to be altered in the presence of soluble β-glucan and studies were carried out to determine if β-glucan affected Treg suppression. Plasma from β-glucan-treated or vehicle-treated whole blood (described above) was added to 25,000 isolated CFSE-labeled autologous CD4 T cells (CD4^+CD25^−) along with increasing numbers of isolated autologous Tregs (CD4^+CD25^+) resulting in wells with increasing ratios. Cells were then stimulated with 50,000 T cell activating CD3/28 beads for 3 days. Proliferation was subsequently measured by CFSE dilution and quantified by Division Index, which was used to calculate the % suppression of Tregs in the co-culture. % suppression=100−(Division Index of Treg well/Division Index of 1:0 well)[…].
The Treg suppression assay was conducted as described above, and after 3 days of co-culture, supernatants were analyzed for IFN-gamma production.

[1] = M1 macrophages, high binder, 25 μg/mL
[2] = relative to vehicle-treated M2 macrophages, co-culture

For “β(1,6)-[poly-(1,3)-D-glucopyranosyl]-poly-β(1,3)-D-glucopyranose [β-glucan]”, the “CD86 median MFI” value (M1 macrophages; [1]) was 2113, the “CD163 (1) median MFI” value (M1 macrophages; [1]) was 158 and the “CD163 (2) median MFI” value (M1 macrophages; [1]) was 230. For the same substance, the “CD206 median MFI” value (M1 macrophages; [1]) was 816, the “CD209 median MFI” value (M1 macrophages; [1]) was 318 and the “CD274 (PD-L1) median MFI” value (M1 macrophages; [1]) was 5563. For the same substance, the “HLA-DR median MFI” value (M1 macrophages; M1 macrophages, high binder, whole blood treated with 25 μg/mL soluble β-glucan 2 hours) was 667, the “CD86 median MFI” value (M1 macrophages; M1 macrophages, low binder) was 3179 and the “CD163 median MFI” value (M1 macrophages; M1 macrophages, low binder) was 132. The “M1 macrophage phenotype (panel of M1/M2-specific markers)” value (M1 macrophages; β-glucan pretreatment of whole blood) was “did not affect M1 macrophage phenotype”, the “Change in MFI on Macrophages: 4-1BBL” value (M2 macrophages; [2]) was “No change” and the “Change in MFI on Macrophages: CD40” value (M2 macrophages; [2]) was “No change”. For the same substance, the “Change in MFI on Macrophages: CD80” value (M2 macrophages; [2]) was “No change”, the “Change in MFI on Macrophages: CD172” value (M2 macrophages; [2]) was “No change” and the “Change in MFI on Macrophages: CD209” value (M2 macrophages; [2]) was “No change”. The “Change in MFI on Macrophages: OX40” value (M2 macrophages; [2]) was “No change”, the “Change in MFI on Macrophages: CD86” value (M2 macrophages; relative to vehicle-treated M2 macrophages, co-culture (day 8)) was “Increase” and the “Change in MFI on Macrophages: PD-L1 (CD274)” value (M2 macrophages; relative to vehicle-treated M2 macrophages, co-culture (day 9)) was “Increase”. The “Change in MFI on Macrophages: HLA-DR” value (M2 macrophages; β-glucan-treated M2 macrophages relative to vehicle-treated, co-culture with CD3 & CD28-stimulated T cells) was “No change”, the “Tumor-free Survivors (day 29)” value (MC38 tumor cells) was 2/18 and the “CD86 median MFI” value (M2a macrophages) was 4572. The “CD163 median MFI” value (M2a macrophages) was 309, the IFN-gamma production (Tregs (CD4+CD25+); Treg suppression assay, 3 days, 8:1 T cell to Treg ratio) was “enhanced IFN-gamma production” and the “suppressive capacity of Tregs” value (Tregs (CD4+CD25+); plasma from β-glucan-treated whole blood vs vehicle-treated) was “significant decreases”.
